Results taken from patent publication US9714240B2 (PharmAkea, Inc., priority 2013, dated 2017).
pIC50: −log10 of the molar value.

Biological target: T1, human autotaxin (Homo sapiens, UniProt Q13822)
T1 construct: Conditioned media is collected from confluent Hep3B cells and concentrated 20-fold; endogenous in cells; host or cells: Hep3B human hepatocellular carcinoma cells (concentrated conditioned medium)
Test: Human Autotaxin Assay (choline release from LPC)
Assay type: biochemical
Settings: ATX in concentrated conditioned media from Hep3B cells, substrate LPC 14:0 100 uM, absorbance at 555 nm
Protocol: ATX activity is assayed in concentrated conditioned media from Hep3B human hepatocellular carcinoma cells by measuring the amount of choline released from the substrate, lysophosphatidylcholine (LPC) as it is cleaved to LPA. Conditioned media is collected from confluent Hep3B cells and concentrated 20-fold using Centriprep-30 filter devices (Millipore). To assay for autotaxin inhibition, 10-20 μL of the concentrated conditioned media is incubated with 2.5 μL of a test compound in DMSO and 72.5-82.5 μL lyso-PLD buffer (100 mM Tris pH 9, 500 mM NaCl, 5 mM MgCl2, 5 mM CaCl2, 0.05% Triton X-100 in the presence or absence of 0.2% fatty-acid-free human serum albumin) for 15 min at 37° C. After the 15 min incubation, 5 ul of 2 mM LPC (14:0; Avanti Polar Lipids Cat#855575C) diluted in lyso-PLD buffer is added for a final concentration of 100 uM and the incubation continues for 1.5-3 hours at 37° C. 100 μl of a color mix containing 4.5 mM 4-aminoantipyrine, 2.7 mM N-ethyl-N-(2-hydroxy-3-sulfopropyl)-m-toluidine, 21 units/ml horseradish peroxidase and 3 units/ml choline oxidase in 50 mM Tris, pH 8, 4.5 mM MgCl2 is added and the incubation continued for 15 minutes at room temperature before reading the absorbance at 555 nm.

Row | Compound | pIC50
1 | N#C/C(=C\c1cn(Cc2ccncc2)c2cc(Cl)ccc12)c1ccc(C(=O)O)cc1 [Compound 1-14, 4-[(Z)-2-[6-chloro-1-(4-pyridylmethyl)indol-3-yl]-1-cyano-vinyl]benzoic Acid] | 5.00 to 6.30
2 | N#C/C(=C\c1cn(Cc2ccc(F)cc2)c2c(Cl)cccc12)c1ccc(C(=O)O)cc1 [Compound 1-5, 4-[(Z)-2-[7-chloro-1-[(4-fluorophenyl)methyl]indol-3-yl]-1-cyano-vinyl]benzoic Acid] | 5.00 to 6.30
3 | N#C/C(=C\c1cn(Cc2ccc(F)cc2)c2ccccc12)c1ccc(C(=O)O)cc1 [Compound 1-1, 4-[(Z)-1-cyano-2-[1-[(4-fluorophenyl)methyl]indol-3-yl]vinyl]benzoic Acid] | 5.00 to 6.30
4 | N#C/C(=C\c1cn(Cc2ccc(F)cc2)c2ccc(F)cc12)c1ccc(C(=O)O)cc1 [Compound 1-6, 4-[(Z)-1-cyano-2-[5-fluoro-1-[(4-fluorophenyl)methyl]indol-3-yl]vinyl]benzoic Acid] | 5.00 to 6.30
5 | N#C/C(=C\c1cn(Cc2ccc(C(F)(F)F)cc2)c2cc(Cl)ccc12)c1ccc(C(=O)O)cc1 [Compound 1-21, 4-[(Z)-2-[6-chloro-1-[[4-(trifluoromethyl)phenyl]methyl]indol-3-yl]-1-cyano-vinyl]benzoic Acid] | 5.00 to 6.30
6 | N#C/C(=C\c1cn(Cc2ccc(F)cc2)c2cc(Br)ccc12)c1ccc(C(=O)O)cc1 [Compound 1-8, 4-[(Z)-2-[6-bromo-1-[(4-fluorophenyl)methyl]indol-3-yl]-1-cyano-vinyl]benzoic Acid] | 5.00 to 6.30
7 | CCCn1cc(-n2cc(/C=C(\C#N)c3ccc(C(=O)O)cc3)c3ccc(Cl)cc32)cn1 [Compound 1-12, 4-[(Z)-2-[6-chloro-1-(1-propylpyrazol-4-yl)indol-3-yl]-1-cyano-vinyl]benzoic Acid] | < 5.00
8 | N#C/C(=C\c1cn(CCc2ccc(F)cc2)c2cc(Cl)ccc12)c1ccc(C(=O)O)cc1 [Compound 1-22, 4-[(Z)-2-[6-chloro-1-[2-(4-fluorophenyl)ethyl]indol-3-yl]-1-cyano-vinyl]benzoic Acid] | < 5.00
9 | N#C/C(=C\c1cn(Cc2ccc(Cl)nc2)c2cc(Cl)ccc12)c1ccc(C(=O)O)cc1 [Compound 1-16, 4-[(Z)-2-[6-chloro-1-[(6-chloro-3-pyridyl)methyl]indol-3-yl]-1-cyano-vinyl]benzoic Acid] | ≥ 6.30
10 | COc1ccc2c(/C=C(\C#N)c3ccc(C(=O)O)cc3)cn(Cc3ccc(F)cc3)c2c1 [Compound 1-10, 4-[(Z)-1-cyano-2-[1-[(4-fluorophenyl)methyl]-6-methoxy-indol-3-yl]vinyl]benzoic Acid] | ≥ 6.30
11 | N#C/C(=C\c1cn(Cc2cc(Cl)cc(Cl)c2)c2cc(Cl)ccc12)c1ccc(C(=O)O)cc1 [Compound 1-19, 4-[(Z)-2-[6-chloro-1-[(3,5-dichlorophenyl)methyl]indol-3-yl]-1-cyano-vinyl]benzoic Acid] | 5.00 to 6.30
12 | N#C/C(=C\c1cn(Cc2ccc(F)cc2)c2cc(C(F)(F)F)ccc12)c1ccc(C(=O)O)cc1 [Compound 1-9, 4-[(Z)-1-cyano-2-[1-[(4-fluorophenyl)methyl]-6-(trifluoromethyl)indol-3-yl]vinyl]benzoic Acid] | 5.00 to 6.30
13 | N#C/C(=C\c1cn(Cc2ccccc2)c2cc(Cl)ccc12)c1ccc(C(=O)O)cc1 [Compound 1-13, 4-[(Z)-2-(1-benzyl-6-chloro-indol-3-yl)-1-cyano-vinyl]benzoic Acid] | 5.00 to 6.30
14 | CCCc1noc(Cn2cc(/C=C(\C#N)c3ccc(C(=O)O)cc3)c3ccc(Cl)cc32)n1 [Compound 1-18, 4-[(Z)-2-[6-chloro-1-[(3-propyl-1,2,4-oxadiazol-5-yl)methyl]indol-3-yl]-1-cyano-vinyl]benzoic Acid] | 5.00 to 6.30
15 | N#C/C(=C\c1cn(Cc2ccc(F)cc2)c2cc(Cl)ccc12)c1ccc(C(=O)O)cc1 [Compound 1-4, (Z)-4-(2-(6-chloro-1-(4-fluorobenzyl)-1H-indol-3-yl)-1-cyanovinyl)benzoic Acid] | ≥ 6.30
16 | N#C/C(=C\c1cn(Cc2ccc(F)cc2)c2ccc(Cl)cc12)c1ccc(C(=O)O)cc1 [Compound 1-3, 4-[(Z)-2-[5-chloro-1-[(4-fluorophenyl)methyl]indol-3-yl]-1-cyano-vinyl]benzoic Acid] | < 5.00

Second part, the molecule after the results:

Row | pIC50 | Compound
17 | 5.00 to 6.30 | CS(=O)(=O)c1ccc2c(/C=C(\C#N)c3ccc(C(=O)O)cc3)cn(Cc3ccc(F)cc3)c2c1 [Compound 1-67, (Z)-4-(1-cyano-2-(1-(4-fluorobenzyl)-6-(methylsulfonyl)-1H-indol-3-yl)vinyl)benzoic Acid]
18 | ≥ 6.30 | N#C/C(=C\c1cn(Cc2ccc(F)cc2)c2cc([N+](=O)[O-])ccc12)c1ccc(C(=O)O)cc1 [Compound 1-66, (Z)-4-(1-cyano-2-(1-(4-fluorobenzyl)-6-nitro-1H-indol-3-yl)vinyl)benzoic Acid]
19 | ≥ 6.30 | COc1ccc(Cn2cc(/C=C(\C#N)c3ccc(C(=O)O)nc3)c3ccc(Cl)cc32)cn1 [Compound 2-3, 5-[(Z)-2-[6-chloro-1-[(6-methoxy-3-pyridyl)methyl]indol-3-yl]-1-cyano-vinyl]pyridine-2-carboxylic Acid]
20 | 5.00 to 6.30 | N#C/C(=C\c1cn(Cc2ccc(F)cc2)c2cc(Cl)ccc12)c1cccc(C(=O)O)c1 [Compound 2-26]
21 | ≥ 6.30 | COc1ccc(Cn2cc(/C=C(\C#N)c3ccc(C(=O)O)cc3)c3ccc(Cl)cc32)cn1 [Compound 1-26, 4-[(Z)-2-[6-chloro-1-[(6-methoxy-3-pyridyl)methyl]indol-3-yl]-1-cyano-vinyl]benzoic Acid]
22 | ≥ 6.30 | N#C/C(=C\c1cn(Cc2ccc(C(F)(F)F)nc2)c2cc(Cl)ccc12)c1ccc(C(=O)O)cc1 [Compound 1-27, 4-[(Z)-2-[6-chloro-1-[[6-(trifluoromethyl)-3-pyridyl]methyl]indol-3-yl]-1-cyano-vinyl]benzoic Acid]
23 | ≥ 6.30 | COc1ccc(Cn2cc(/C=C(\C#N)c3ccc(C(=O)O)cc3)c3ccc(OC(F)(F)F)cc32)cn1 [Compound 1-76]
24 | ≥ 6.30 | COc1ccc2c(/C=C(\C#N)c3ccc(C(=O)O)cc3)cn(Cc3ccc(OC)nc3)c2c1 [Compound 1-29, 4-[(Z)-1-cyano-2-[6-methoxy-1-[(6-methoxy-3-pyridyl)methyl]indol-3-yl]vinyl]benzoic Acid]
25 | < 5.00 | N#C/C(=C\c1cn(Cc2ccc(F)cc2C(F)(F)F)c2cc(Cl)ccc12)c1ccc(C(=O)O)cc1 [Compound 1-46, (Z)-4-(2-(6-chloro-1-(4-fluoro-2-(trifluoromethyl)benzyl)-1H-indol-3-yl)-1-cyanovinyl)benzoic Acid]
26 | < 5.00 | N#C/C(=C\c1cn(CCCc2ccc(F)cc2)c2cc(Cl)ccc12)c1ccc(C(=O)O)cc1 [Compound 1-23, 4-[(Z)-2-[6-chloro-1-[3-(4-fluorophenyl)propyl]indol-3-yl]-1-cyano-vinyl]benzoic Acid]
27 | ≥ 6.30 | CCOc1ccc2c(/C=C(\C#N)c3ccc(C(=O)O)cc3)cn(Cc3ccc(F)cc3)c2c1 [Compound 1-65, (Z)-4-(1-cyano-2-(6-ethoxy-1-(4-fluorobenzyl)-1H-indol-3-yl)vinyl)benzoic Acid]
28 | ≥ 6.30 | N#C/C(=C\c1cn(Cc2ccc(F)cc2)c2cc(Cl)ccc12)c1ccc(CC(=O)O)cc1 [Compound 2-25, (Z)-2-(4-(2-(6-chloro-1-(4-fluorobenzyl)-1H-indol-3-yl)-1-cyanovinyl)phenyl)acetic Acid]
29 | 5.00 to 6.30 | Cn1cc(Cn2cc(/C=C(\C#N)c3ccc(C(=O)O)cc3)c3ccc(Cl)cc32)cn1 [Compound 1-25, 4-[(Z)-2-[6-chloro-1-[(1-methylpyrazol-4-yl)methyl]indol-3-yl]-1-cyano-vinyl]benzoic Acid]
30 | ≥ 6.30 | COc1ccc(Cn2cc(/C=C(\C#N)c3ccc(C(=O)O)cc3)c3ccc(Cl)c(F)c32)cn1 [Compound 1-50]
31 | ≥ 6.30 | N#C/C(=C\c1cn(Cc2cnc(C(F)(F)F)s2)c2cc(OC(F)(F)F)ccc12)c1ccc(C(=O)O)cc1 [Compound 1-77, (Z)-4-(1-cyano-2-(6-(trifluoromethoxy)-1-((2-(trifluoromethyl)thiazol-5-yl)methyl)-1H-indol-3-yl)vinyl)benzoic Acid]
32 | ≥ 6.30 | N#C/C(=C\c1cn(Cc2ccc(F)cc2)c2cc(Cl)ccc12)c1ccc(C(=O)O)nc1 [Compound 2-2, 5-[(Z)-2-[6-chloro-1-[(4-fluorophenyl)methyl]indol-3-yl]-1-cyano-vinyl]pyridine-2-carboxylic Acid]
33 | 5.00 to 6.30 | N#C/C(=C\c1cn(Cc2ccc(F)cc2)c2c(F)c(Cl)ccc12)c1ccc(C(=O)O)cc1 [Compound 1-49, (Z)-4-(2-(6-chloro-7-fluoro-1-(4-fluorobenzyl)-1H-indol-3-yl)-1-cyanovinyl)benzoic Acid]
34 | < 5.00 | N#C/C(=C\c1cn(Cc2ccc(OCC(F)(F)F)nc2)c2cc(Cl)ccc12)c1ccc(C(=O)O)cc1 [Compound 1-48, (Z)-4-(2-(6-chloro-1-((6-(2,2,2-trifluoroethoxy)pyridin-3-yl)methyl)-1H-indol-3-yl)-1-cyanovinyl)benzoic Acid]
35 | 5.00 to 6.30 | N#C/C(=C\c1cn(Cc2ccc(OC(F)(F)F)cc2)c2cc(Cl)ccc12)c1ccc(C(=O)O)cc1 [Compound 1-45, (Z)-4-(2-(6-chloro-1-(4-(trifluoromethoxy)benzyl)-1H-indol-3-yl)-1-cyanovinyl)benzoic Acid]
